Experimental findings from publication PMC10745497, “The Discovery of Indole-2-carboxylic Acid Derivatives as Novel HIV-1 Integrase Strand Transfer Inhibitors” (Molecules, 2023) are described below.

One may read the melting point as the temperature of the solid-liquid transition.

Series [1] addresses T1, HIV-1 integrase (Human immunodeficiency virus type 1 group M subtype B, UniProt P04585).
T1 construct: purchased Abnova
Nature of the series: Strand transfer inhibition assay (HIV-1 integrase assay kit). It is filed as biochemical. The following applies: for IC50: average of three independent experiments; for Improvement of integrase inhibitory activity over the parent compound 3: ratio of IC50s versus compound 3. The procedure:
The strand transfer assay was performed using an HIV-1 integrase assay kit (Abnova, Taipei, CN) according to the manufacturer’s instructions. Each sample was dissolved in DMSO and diluted to a final desired concentration (80, 40, 20, 10, 5 μM) with reaction buffer. Briefly, 100 μL of DS DNA solution was added to each well and incubated for 30 min at 37 °C, and the liquid was removed from the wells and washed 3 times with wash buffer. Then, 200 μL of blocking buffer was added to each well and incubated for 30 min in a 37 °C incubator. Followed by the aspiration of the liquid, each well was washed 3 times with reaction buffer, and 100 μL integrase enzyme solution was added to each well and incubated under similar conditions. Sequentially, 50 μL reaction buffer containing different concentrations of samples was added to each well and incubated for 5 min at room temperature. To each well was added 50 μL of TS DNA solution, and the reactions were mixed gently and incubated for 30 min at 37 °C. Then, each well was washed 3 times with wash solution, incubated with 100 μL HRP antibody and incubated for 30 min at 37 °C. After washing the plate under the same conditions, 100 μL TMB peroxidase substrate solution was added to each well and incubated at room temperature for 10 min. To terminate the reaction, 100 μL TMB stop solution was directly added to each well and the absorbance of the sample was determined using a plate reader (ELx800UV, Bio-Tek Instrument Inc., Winooski, VT, USA) at 450 nm.

A short description of series [2]: Cytotoxicity assay (MTT) on MT-4 cells. In kind it is cell-based, human. The following applies: human, five days, read-out: CC50, concentration that inhibits the proliferation of MT-4 cells by 50%. The procedure:
(§1) The cytotoxicity of the title compounds was tested through MTT analysis on MT-4 cells. Cells were seeded in 96-well plates with a density of 50,000 cells/well and coincubated with serial diluted compounds (2.5, 5, 10, 20, 40, and 80 μM) at 37 °C for five days. MTT (Sigma) was then added to each well to a final concentration of 0.5 mg/mL and incubated for 2 h. Subsequently, the medium was decanted, and 150 μL of DMSO was added to each well. The absorbance was obtained using a microplate reader at 570 nm, and all measurements were conducted three times under the same condition. Finally, 50% cytotoxicity concentration (CC50) values were calculated by Graphpad Prism 8.

Series [3] has as its system MT-4 cells. Description: Cytotoxicity assay (MTT) on MT-4 cells. In kind it is cell-based, human. The following applies: five days, read-out: CC50, concentration that inhibits the proliferation of MT-4 cells by 50%. As for the experimental part: as §1
Setting [4] is: read-out: IC50, concentration required to inhibit the in vitro strand-transfer step of integrase by 50%.
Where [5] appears, read: IC50, concentration required to inhibit the in vitro strand-transfer step of integrase by 50%.

Where two headings read alike, the source gives them in different places.

With `COc1cc(OC)c([C@H]2c3c(oc4ccc(Cl)cc4c3=O)C(=O)N2c2cc(C)on2)cc1OC` [Compound 4], the melting point lay within 271.4 to 279 °C. The IC50 in series [1] (setting [4]) came to 18.5 ± 1.06 µM.
Compound `Cc1c2c(=O)n(-c3nc4ccccc4s3)n(Cc3ccccc3)c2cc(=O)n1Cc1ccc2c(c1)OCO2` [Compound 10] returned a melting point of 139.9 to 143.6 °C. For the same compound, in series [1] (setting [4]), the IC50 was determined as 22.3 ± 0.43 µM.
In turn, `CC(C)OC(=O)c1[nH]c2cc(Br)ccc2c1COCc1ccccc1F` [Compound 18, Isopropyl 6-bromo-3-(((2-fluorobenzyl)oxy)methyl)-1H-indole-2-carboxylate] gave a melting point of 154.6 to 158.9 °C. Further, the CC50 at 5 days in series [2] was above 29 µM. Besides, the CC50 in series [3] was 45.3 ± 2.73 µM. Further, the IC50 in series [1] (setting [5]) was determined as 1.92 ± 0.07 µM. In addition, the “Improvement of integrase inhibitory activity over the parent compound 3” value in series [1] amounted to 6.5 fold.
As to `Clc1ccc2c(c1)C(c1ccccc1Cl)=NCc1nnc(CSCc3ccccc3)n1-2` [Compound 5], the melting point is 164.7 to 167.8 °C. This compound displayed an IC50 in series [1] (setting [5]) of 47.4 ± 1.45 µM.
As to `COc1ccc(Nc2ccc3c(COCc4ccccc4F)c(C(=O)OC(C)C)[nH]c3c2)cc1F` [Compound 19a, Isopropyl 6-((3-fluoro-4-methoxyphenyl)amino)-3-(((2-fluorobenzyl)oxy)methyl)-1H-indole-2-carboxylate], the melting point lay within 141.2 to 144.5 °C. Moreover, the CC50 at 5 days in series [2] was above 29 µM. Further, the CC50 in series [3] is 37.6 ± 3.64 µM. Moreover, the IC50 in series [1] (setting [4]) stood at 1.05 ± 0.32 µM.
As for `O=C(O)c1[nH]c2cc(Br)ccc2c1COCc1ccccc1F` [Compound 21, 6-bromo-3-(((2-fluorobenzyl)oxy)methyl)-1H-indole-2-carboxylic acid], the melting point lay in the range of 174.3 to 178 °C. Besides, the CC50 at 5 days in series [2] was above 80 µM. In addition, the IC50 in series [1] (setting [4]) was found to be 6.85 ± 0.66 µM.
In the case of `Cc1nnc(C(=O)NC(C)(C)c2nc(C(=O)NCc3ccc(F)cc3)c(O)c(=O)n2C)o1` [RAL, raltegravir, reference compound], the CC50 at 5 days in series [2] was above 80 µM.
In turn, `O=C(/C=C/c1ccc2c(c1)OCO2)C[C@@]1(O)C(=O)N(Cc2ccc(Cl)cc2)c2ccccc21` [Compound 7] had a melting point of 147 to 148.2 °C. Moreover, in series [1] (setting [4]), the IC50 is 21.4 ± 0.26 µM.
`O=c1c2cc(N3CCOCC3)ccc2nc(SCc2cc(=O)n3cc(Cl)ccc3n2)n1Cc1ccc2c(c1)OCO2` [Compound 9] had a melting point of 239 to 240.1 °C. For the same compound, the IC50 in series [1] (setting [4]) came out at 32.8 ± 0.83 µM.
Consider `Cc1ccc(CNC(=O)CCS(=O)(=O)c2ccc3c(c2)CCN3C(=O)C2CC2)cc1` [Compound 1], for which the melting point lay in the range of 173.4 to 175.3 °C. Moreover, in series [1] (setting [4]), the IC50 turned out to be 39.1 ± 1.21 µM.
In the case of `O=C(O)c1[nH]c2cc(Nc3ccc(F)cc3F)ccc2c1COCc1ccccc1F` [Compound 20b, 6-((2,4-difluorophenyl)amino)-3-(((2-fluorobenzyl)oxy)methyl)-1H-indole-2-carboxylic acid], the melting point lay within 178.5 to 181.8 °C. In addition, in series [2], the CC50 at 5 days was above 80 µM. Further, the IC50 in series [1] (setting [4]) turned out to be 0.64 ± 0.06 µM.
The compound `O=C(O)c1[nH]c2cc(Nc3ccc(F)cc3F)ccc2c1COCc1ccc(C(F)(F)F)cc1` [Compound 17b, 6-((2,4-difluorophenyl)amino)-3-(((4-(trifluoromethyl)benzyl)oxy)methyl)-1H-indole-2-carboxylic acid] had a melting point of 157.3 to 160.5 °C. Besides, the CC50 at 5 days in series [2] was above 80 µM. Besides, the IC50 in series [1] (setting [4]) was determined as 0.39 ± 0.09 µM.
`COc1ccc(Nc2ccc3c(COCc4ccccc4F)c(C(=O)O)[nH]c3c2)cc1F` [Compound 20a, 6-((3-fluoro-4-methoxyphenyl)amino)-3-(((2-fluorobenzyl)oxy)methyl)-1H-indole-2-carboxylic acid] showed a melting point of 169.9 to 173.7 °C. In series [2], the CC50 at 5 days is above 80 µM. The IC50 in series [1] (setting [4]) stood at 0.13 ± 0.02 µM.
Turning to `COc1ccc([C@H]2CC(=O)Nc3c(S(=O)(=O)c4ccccc4)csc32)cc1OC1CCCC1` [Compound 2], the melting point was 113 to 116.7 °C. Besides, the IC50 in series [1] (setting [4]) came to 33 ± 1.29 µM.
In the case of `O=C(NCc1ccc(F)cc1)c1coc(CN(Cc2ccc3c(c2)OCO3)Cc2ccc3c(c2)OCO3)n1` [Compound 8], the melting point lay within 171.5 to 176.8 °C. Also, the IC50 in series [1] (setting [4]) worked out at 28.2 ± 1.07 µM.
On to `CC(C)OC(=O)c1[nH]c2cc(Br)ccc2c1COCc1ccc(C(F)(F)F)cc1` [Compound 15, Isopropyl 6-bromo-3-(((4-(trifluoromethyl)benzyl)oxy)methyl)-1H-indole-2-carboxylate], for which, in series [2], the CC50 at 5 days was above 80 µM. Also, the IC50 in series [1] (setting [5]) amounted to 2.34 ± 0.31 µM. In addition, the “Improvement of integrase inhibitory activity over the parent compound 3” value in series [1] was 5.3 fold.
On to `O=C(NC1CCCC1)c1ccc2c(=O)n(Cc3ccco3)c(=O)n(Cc3cccc([N+](=O)[O-])c3)c2c1` [Compound 6], for which the melting point was 235.3 to 241.2 °C. For the same compound, the IC50 in series [1] (setting [4]) amounted to 22.6 ± 0.58 µM.
As to `COc1ccc(Nc2ccc3c(COCc4ccc(C(F)(F)F)cc4)c(C(=O)OC(C)C)[nH]c3c2)cc1F` [Compound 16a, Isopropyl 6-((3-fluoro-4-methoxyphenyl)amino)-3-(((4-(trifluoromethyl)benzyl)oxy)methyl)-1H-indole-2-carboxylate], the melting point was in the range of 142.3 to 145.6 °C. In series [2], the CC50 at 5 days was above 80 µM. Besides, in series [1] (setting [4]), the IC50 is 3.47 ± 0.82 µM.
`COc1ccc2[nH]c(C(=O)O)c(CC(=O)O)c2c1` [Compound 3]: the melting point lay within 159.7 to 163.2 °C. Besides, the IC50 in series [1] (setting [4]) is 12.41 ± 0.07 µM.
Compound `CC(C)OC(=O)c1[nH]c2cc(Nc3ccc(F)cc3F)ccc2c1COCc1ccccc1F` [Compound 19b, Isopropyl 6-((2,4-difluorophenyl)amino)-3-(((2-fluorobenzyl)oxy)methyl)-1H-indole-2-carboxylate] came in with a melting point of 171.8 to 175.3 °C. Besides, the CC50 at 5 days in series [2] was above 29 µM. Moreover, the CC50 in series [3] was 29.4 ± 1.76 µM. The IC50 in series [1] (setting [4]) stood at 1.7 ± 0.15 µM.
Take `COc1ccc(Nc2ccc3c(COCc4ccc(C(F)(F)F)cc4)c(C(=O)O)[nH]c3c2)cc1F` [Compound 17a, 6-((3-fluoro-4-methoxyphenyl)amino)-3-(((4-(trifluoromethyl)benzyl)oxy)methyl) -1H-indole-2-carboxylic acid]: the melting point was in the range of 134.8 to 136.3 °C. Moreover, the CC50 at 5 days in series [2] is above 80 µM. Further, the IC50 in series [1] (setting [4]) worked out at 0.93 ± 0.07 µM.
Taken in the same sequence, the figures for `CC(C)OC(=O)c1[nH]c2cc(Nc3ccc(F)cc3F)ccc2c1COCc1ccc(C(F)(F)F)cc1` [Compound 16b, Isopropyl 6-((2,4-difluorophenyl)amino)-3-(((4-(trifluoromethyl)benzyl)oxy)methyl)-1H-indole-2-carboxylate] were 149.7 to 152.5 °C, above 80 µM and 1.06 ± 0.25 µM.
